Laboratory results published in patent US12370161B2, “Composition for treating atopy or pruritus comprising N-acetyl or N-acyl amino acid” (STEMDR INC., priority 2017, dated 2025).

Legend:
[1] = system: atopic dermatitis-induced Nc/Nga mouse; experiment: SCORAD clinical skin score, DNFB-induced atopic dermatitis in Nc/Nga mouse; type: in vivo; parameters: key to Mouse 1 Erythema / Mouse 2 Eschar / Mouse 2 Dryness / Mouse 2 Abrasion / Mouse 1 Edema / Mouse 1 Eschar / Mouse 1 Dryness / Mouse 1 Abrasion / Mouse 2 Erythema / Mouse 2 Edema / Mouse 3 Erythema / Mouse 3 Edema / Mouse 3 Eschar / Mouse 3 Dryness / Mouse 3 Abrasion: 0 = no symptom, 1 = mild, 2 = moderate, 3 = severe; key to Mouse 1 Sum / Mean (of Sum, SCORAD) / Mouse 3 Sum: sum of individual symptom scores, each graded 0-3; settings: for dermatitis-treating effect of L-, L/D- and D-form (FIG. 6): Nc/Nga atopic dermatitis model, 0.1%; for Mouse 1 Erythema: DNFB Nc/Nga (FIG. 8), 0.1% in PBS, 200 μL on back skin daily day 15-21; for Mouse 1 Erythema / Mouse 1 Abrasion / Mouse 1 Dryness / Mouse 1 Edema / Mouse 1 Eschar / Mouse 1 Lichenification / Mouse 2 Abrasion / Mouse 2 Dryness / Mouse 2 Edema / Mouse 2 Erythema / Mouse 2 Eschar / Mouse 2 Lichenification / Mouse 3 Abrasion / Mouse 3 Dryness / Mouse 3 Edema / Mouse 3 Erythema / Mouse 3 Eschar / Mouse 3 Lichenification: graded per Example 4; for Mouse 1 Abrasion / Mouse 1 Dryness / Mouse 1 Edema / Mouse 1 Eschar / Mouse 1 Lichenification / Mouse 1 Sum / Mouse 2 Abrasion / Mouse 2 Dryness / Mouse 2 Edema / Mouse 2 Erythema / Mouse 2 Eschar / Mouse 2 Lichenification / Mouse 2 Sum / Mouse 3 Abrasion / Mouse 3 Dryness / Mouse 3 Edema / Mouse 3 Erythema / Mouse 3 Eschar / Mouse 3 Lichenification / Mouse 3 Sum / Mean (of Sum, SCORAD): DNFB Nc/Nga, 0.1% topical day 15-21; for Mouse 1 Sum / Mouse 2 Sum / Mouse 3 Sum: sum of individual scores; for Mean (of Sum, SCORAD): mean of 3 mice
Method: In order to establish a model more similar to an atopy model than that of the Balb/c mice, atopy was induced in Nc/Nga mouse mice. Specifically, after inducing DNFB sensitization by applying 100 μL of 0.35% 2,4-dinitrofluorobenzene (DNFB) in acetone/olive oil (3:1) on the shaved back skin, dermatitis was induced by applying 100 μL of 0.15% DNFB for 4-20 days, every other day. Control mice were treated with a vehicle of the same volume (FIG. 1B).
(§1) After dissolving an N-acetyl or N-acylamino acid in phosphate-buffered saline to 0.1%, 200 μL of the solution was applied on the back skin of the mice every day, from day 22 until day 28 for the Balb/c atopic dermatitis model, and from day 15 until day 21 for the Nc/Nga atopic dermatitis model. When the N-acetyl or N-acylamino acid was treated together with DNFB, they were treated with 12-hour intervals in order to avoid direct reaction between the DNFB and the N-acetyl or N-acylamino acid. A non-treated group and a 2,4-dinitrofluorobenzene (DNFB) group were treated with phosphate-buffered saline of the same volume (FIGS. 1A-1B). As the N-acetylamino acid, products purchased from Sigma-Aldrich (USA), MP scientific (USA), TCI (Tokyo Chemical Industry, Japan), Santacruz (USA), etc. were used without purification.
(§2) The degree of skin soothing and the severity of atopic dermatitis were evaluated macroscopically according to the previously established SCORAD (SCORing Atopic Dermatitis) method (Oranje et al., 2007). The degree of symptoms such as edema, erythema, eschar, dryness, abrasion, lichenification, etc. was graded from 0 to 3 (0, no symptom; 1, mild; 2, moderate; 3, severe). The overall dermatitis score was determined from the sum of all individual scores (Table 1). The assessment was performed by an investigator who was blind to the grouping of the mice.
Skin-soothing effect and the severity of dermatitis were evaluated for the acyl derivatives of tryptophan synthesized in Example 9, the acyl derivative of alanine synthesized in Example 10 and N-palmitoylalanine (purchased from Santacruz (USA)) according to the method of Example 4 (Table 2)

[2] = system: atopic dermatitis-induced Balb/c mouse; experiment: SCORAD clinical skin score, DNFB-induced atopic dermatitis in Balb/c mouse; type: in vivo; parameters: key to Mouse 1 Sum / Mean (of Sum, SCORAD) / Mouse 2 Sum / Mouse 3 Sum: sum of symptom grades, each 0 (none) to 3 (severe); settings: DNFB Balb/c; for Mouse 1 Erythema: 0.1% in PBS, 200 μL on back skin daily day 22-28, grade 0-3 (0 no symptom, 1 mild, 2 moderate, 3 severe); for Mouse 1 Abrasion / Mouse 1 Dryness / Mouse 1 Edema / Mouse 1 Eschar / Mouse 1 Lichenification / Mouse 1 Sum / Mouse 2 Abrasion / Mouse 2 Dryness / Mouse 2 Edema / Mouse 2 Erythema / Mouse 2 Eschar / Mouse 2 Lichenification / Mouse 2 Sum / Mouse 3 Abrasion / Mouse 3 Dryness / Mouse 3 Edema / Mouse 3 Erythema / Mouse 3 Eschar / Mouse 3 Lichenification / Mouse 3 Sum / Mean (of Sum, SCORAD): 0.1% topical day 22-28; for Mouse 1 Abrasion / Mouse 1 Dryness / Mouse 1 Edema / Mouse 1 Eschar / Mouse 1 Lichenification / Mouse 2 Abrasion / Mouse 2 Dryness / Mouse 2 Edema / Mouse 2 Erythema / Mouse 2 Eschar / Mouse 2 Lichenification / Mouse 3 Abrasion / Mouse 3 Dryness / Mouse 3 Edema / Mouse 3 Erythema / Mouse 3 Eschar / Mouse 3 Lichenification: grade 0-3; for Mouse 1 Sum / Mouse 2 Sum / Mouse 3 Sum: overall dermatitis score, sum of individual scores; for Mean (of Sum, SCORAD): mean of 3 mice
Method: In order to induce atopy-like dermatitis in Balb/c mice, DNFB sensitization was induced by applying 100 μL of 0.35% 2,4-dinitrofluorobenzene (DNFB) (Sigma, USA) in acetone/olive oil (3:1) on the shaved back skin of the mice. Then, dermatitis was induced by applying 100 μL of 0.25% DNFB on days 6, 9, 12, 15, 18 21, 24 and 27 on the shaved back skin. Control mice were treated with a vehicle of the same volume (FIG. 1A).
as §1, §2

Structure (SMILES): CC(=O)N[C@@H](C)C(=O)O [D-form N-acetylalanine, N-acetylalanine, reference compound]
- dermatitis-treating effect of L-, L/D- and D-form (FIG. 6) [1]: no effect

Structure (SMILES): CC(=O)N[C@@H](Cc1c[nH]c2ccccc12)C(=O)O [D-form N-acetyltryptophan, N-acetyltryptophan, reference compound]
- dermatitis-treating effect of L-, L/D- and D-form (FIG. 6) [1]: no effect

Structure (SMILES): CCCCCCCC/C=C\CCCCCCCCCCCC(=O)N[C@@H](Cc1c[nH]c2ccccc12)C(=O)O [N-(Z)-docos-13-enoyl L-tryptophan, N—(Z)-docos-13-enoyl-L-tryptophan]
- Mouse 1 Erythema [1]: 1
- Mouse 1 Abrasion [1]: 1
- Mouse 1 Dryness [1]: 1
- Mouse 1 Edema [1]: 1
- Mouse 1 Eschar [1]: 1
- Mouse 1 Lichenification [1]: 0
- Mouse 1 Sum [1]: 5
- Mouse 2 Abrasion [1]: 1
- Mouse 2 Dryness [1]: 2
- Mouse 2 Edema [1]: 1
- Mouse 2 Erythema [1]: 1
- Mouse 2 Eschar [1]: 2
- Mouse 2 Lichenification [1]: 0
- Mouse 2 Sum [1]: 7
- Mouse 3 Abrasion [1]: 1
- Mouse 3 Dryness [1]: 2
- Mouse 3 Edema [1]: 1
- Mouse 3 Erythema [1]: 2
- Mouse 3 Eschar [1]: 2
- Mouse 3 Lichenification [1]: 1
- Mouse 3 Sum [1]: 9
- Mean (of Sum, SCORAD) [1]: 7

Structure (SMILES): CC(=O)N1CCC[C@H]1C(=O)O [N-acetyl-L-proline]
- Mouse 1 Erythema [2]: 3
- Mouse 1 Abrasion [2]: 2
- Mouse 1 Dryness [2]: 3
- Mouse 1 Edema [2]: 2
- Mouse 1 Eschar [2]: 1
- Mouse 1 Lichenification [2]: 2
- Mouse 1 Sum [2]: 13
- Mouse 2 Abrasion [2]: 2
- Mouse 2 Dryness [2]: 3
- Mouse 2 Edema [2]: 3
- Mouse 2 Erythema [2]: 2
- Mouse 2 Eschar [2]: 2
- Mouse 2 Lichenification [2]: 2
- Mouse 2 Sum [2]: 14
- Mouse 3 Abrasion [2]: 1
- Mouse 3 Dryness [2]: 3
- Mouse 3 Edema [2]: 2
- Mouse 3 Erythema [2]: 3
- Mouse 3 Eschar [2]: 2
- Mouse 3 Lichenification [2]: 2
- Mouse 3 Sum [2]: 13
- Mean (of Sum, SCORAD) [2]: 13.33

Structure (SMILES): CC(=O)N[C@@H](CO)C(=O)O [N-acetyl-L-serine]
- Mouse 1 Erythema [2]: 3
- Mouse 1 Abrasion [2]: 2
- Mouse 1 Dryness [2]: 2
- Mouse 1 Edema [2]: 2
- Mouse 1 Eschar [2]: 2
- Mouse 1 Lichenification [2]: 2
- Mouse 1 Sum [2]: 13
- Mouse 2 Abrasion [2]: 2
- Mouse 2 Dryness [2]: 3
- Mouse 2 Edema [2]: 2
- Mouse 2 Erythema [2]: 3
- Mouse 2 Eschar [2]: 2
- Mouse 2 Lichenification [2]: 3
- Mouse 2 Sum [2]: 15
- Mouse 3 Abrasion [2]: 2
- Mouse 3 Dryness [2]: 3
- Mouse 3 Edema [2]: 2
- Mouse 3 Erythema [2]: 3
- Mouse 3 Eschar [2]: 2
- Mouse 3 Lichenification [2]: 2
- Mouse 3 Sum [2]: 14
- Mean (of Sum, SCORAD) [2]: 14

Structure (SMILES): CC(=O)N[C@@H](Cc1ccc(O)cc1)C(=O)O [N-acetyl-L-tyrosme]
- Mouse 1 Erythema [2]: 3
- Mouse 1 Abrasion [2]: 2
- Mouse 1 Dryness [2]: 3
- Mouse 1 Edema [2]: 2
- Mouse 1 Eschar [2]: 3
- Mouse 1 Lichenification [2]: 2
- Mouse 1 Sum [2]: 15
- Mouse 2 Abrasion [2]: 2
- Mouse 2 Dryness [2]: 3
- Mouse 2 Edema [2]: 2
- Mouse 2 Erythema [2]: 3
- Mouse 2 Eschar [2]: 2
- Mouse 2 Lichenification [2]: 3
- Mouse 2 Sum [2]: 15
- Mouse 3 Abrasion [2]: 2
- Mouse 3 Dryness [2]: 2
- Mouse 3 Edema [2]: 2
- Mouse 3 Erythema [2]: 3
- Mouse 3 Eschar [2]: 2
- Mouse 3 Lichenification [2]: 2
- Mouse 3 Sum [2]: 13
- Mean (of Sum, SCORAD) [2]: 14.33

Structure (SMILES): CC(=O)N[C@H](C(=O)O)C(C)C [N-acetyl-L-valine]
- Mouse 1 Erythema [2]: 3
- Mouse 1 Abrasion [2]: 2
- Mouse 1 Dryness [2]: 2
- Mouse 1 Edema [2]: 2
- Mouse 1 Eschar [2]: 2
- Mouse 1 Lichenification [2]: 3
- Mouse 1 Sum [2]: 14
- Mouse 2 Abrasion [2]: 2
- Mouse 2 Dryness [2]: 2
- Mouse 2 Edema [2]: 2
- Mouse 2 Erythema [2]: 2
- Mouse 2 Eschar [2]: 2
- Mouse 2 Lichenification [2]: 3
- Mouse 2 Sum [2]: 13
- Mouse 3 Abrasion [2]: 1
- Mouse 3 Dryness [2]: 3
- Mouse 3 Edema [2]: 2
- Mouse 3 Erythema [2]: 2
- Mouse 3 Eschar [2]: 2
- Mouse 3 Lichenification [2]: 2
- Mouse 3 Sum [2]: 12
- Mean (of Sum, SCORAD) [2]: 13

Structure (SMILES): CC(=O)N[C@@H](CCC(=O)N[C@@H](C)C(=O)O)C(=O)O [N-acetyly-glutammyl-L-alanine, N-acetyl-γ-glutammyl-L-alanine]
- Mouse 1 Erythema [1]: 0
- Mouse 1 Abrasion [1]: 1
- Mouse 1 Dryness [1]: 0
- Mouse 1 Edema [1]: 1
- Mouse 1 Eschar [1]: 0
- Mouse 1 Lichenification [1]: 2
- Mouse 1 Sum [1]: 4
- Mouse 2 Abrasion [1]: 1
- Mouse 2 Dryness [1]: 1
- Mouse 2 Edema [1]: 1
- Mouse 2 Erythema [1]: 1
- Mouse 2 Eschar [1]: 2
- Mouse 2 Lichenification [1]: 2
- Mouse 2 Sum [1]: 8
- Mouse 3 Abrasion [1]: 1
- Mouse 3 Dryness [1]: 0
- Mouse 3 Edema [1]: 1
- Mouse 3 Erythema [1]: 1
- Mouse 3 Eschar [1]: 1
- Mouse 3 Lichenification [1]: 2
- Mouse 3 Sum [1]: 6
- Mean (of Sum, SCORAD) [1]: 6

Structure (SMILES): CCCC(=O)N[C@@H](Cc1c[nH]c2ccccc12)C(=O)O [N-butyryl L-tryptophan, N-butyryl-L-tryptophan]
- Mouse 1 Erythema [1]: 1
- Mouse 1 Abrasion [1]: 1
- Mouse 1 Dryness [1]: 2
- Mouse 1 Edema [1]: 2
- Mouse 1 Eschar [1]: 2
- Mouse 1 Lichenification [1]: 2
- Mouse 1 Sum [1]: 10
- Mouse 2 Abrasion [1]: 2
- Mouse 2 Dryness [1]: 2
- Mouse 2 Edema [1]: 1
- Mouse 2 Erythema [1]: 2
- Mouse 2 Eschar [1]: 1
- Mouse 2 Lichenification [1]: 2
- Mouse 2 Sum [1]: 10
- Mouse 3 Abrasion [1]: 1
- Mouse 3 Dryness [1]: 1
- Mouse 3 Edema [1]: 1
- Mouse 3 Erythema [1]: 1
- Mouse 3 Eschar [1]: 1
- Mouse 3 Lichenification [1]: 2
- Mouse 3 Sum [1]: 6
- Mean (of Sum, SCORAD) [1]: 8.7

Structure (SMILES): CCCCCCCC/C=C\CCCCCCCC(=O)N[C@@H](Cc1c[nH]c2ccccc12)C(=O)O [N-oleoyl-L-tryptophan]
- Mouse 1 Erythema [1]: 2
- Mouse 1 Abrasion [1]: 2
- Mouse 1 Dryness [1]: 2
- Mouse 1 Edema [1]: 1
- Mouse 1 Eschar [1]: 2
- Mouse 1 Lichenification [1]: 3
- Mouse 1 Sum [1]: 12
- Mouse 2 Abrasion [1]: 2
- Mouse 2 Dryness [1]: 2
- Mouse 2 Edema [1]: 1
- Mouse 2 Erythema [1]: 1
- Mouse 2 Eschar [1]: 1
- Mouse 2 Lichenification [1]: 3
- Mouse 2 Sum [1]: 10
- Mouse 3 Abrasion [1]: 2
- Mouse 3 Dryness [1]: 2
- Mouse 3 Edema [1]: 1
- Mouse 3 Erythema [1]: 2
- Mouse 3 Eschar [1]: 1
- Mouse 3 Lichenification [1]: 2
- Mouse 3 Sum [1]: 10
- Mean (of Sum, SCORAD) [1]: 10.7
